Assay results from US10662193B2, “Carbazole and carboline compounds for use in the diagnosis, treatment, alleviation or prevention of disorders associated with amyloid or amyloid-like proteins” (AC IMMUNE SA, priority 2014, dated 2020).

Molecular target: Tau enriched paired helical filaments (PHF) from human Alzheimer's disease (AD) brains (Homo sapiens, UniProt P10636)
Assay: Assay 3: backscattering interferometry, dissociation constants (Kd)
Type: binding
Conditions: PHF batch 6 (pooled frontal cortex, 25 AD patients); read-out: [Kd] on PHF batch 6
From the text: Assay 3 (Backscattering Interferometry):
Determination of Dissociation Constants (Kd) of Compounds of this Invention
Enrichment of Paired Helical Filaments (PHF's) from Human Alzheimer's Disease Brains
For backscattering interferometry, Tau enriched paired helical filaments (PHF) from human Alzheimer's disease (AD) brains were used as a target. Due to the limited availability of tissues, to determine dissociation constants (Kd) of compounds of this invention to the target, two different batches of enriched PHF were used. These batches are identified as batch 6 and 7 and were prepared as follows.
PHF batch number 6 was prepared starting from 25 g frontal cortical tissue from post-mortem brains of 25 Alzheimer's disease (AD) patients which were obtained from the London Tissue Bank. The mean age at death for the AD patients was 76 years (48% females). Brain samples were characterized for Braak disease stage (Braak and Braak, 1991), with most donors displaying a stage VI. The postmortem interval between death and brain dissection was between 6 and 65 h. Human brain homogenates were prepared by SB Drug Discovery (Glasgow, Scotland, UK) from the post-mortem cortical tissue of the 25 patients). Each tissue (1 g) was homogenized with a Dounce glass homogenizer in 1.5 mL 100 mM 2-(N-morpholino) ethane-sulfonic acid (MES) pH 6.8, 0.75 M NaCl, 1 mM EGTA, 0.5 mM MgSO4, 2 mM DTT containing protease inhibitors (Complete; Roche 11697498001). For each sample, two aliquots containing 0.5 g brain homogenates in 0.75 mL were shipped to AC Immune SA on dry ice and stored at −80° C. For the enrichment of PHF, 1 aliquot per donor corresponding to total 12.5 g of brain tissue were thawed on ice and then incubated at 4° C. for 20 min to depolymerize any residual microtubules. All samples were then pooled and transferred to three polycarbonate centrifuge bottles (16×76 mm; Beckman 355603).
PHF batch number 7 was prepared starting from 32 g of parietal cortex tissue from post-mortem brain of one Alzheimer's disease (AD) patient was obtained from an external provider (Tissue Solution). The patient was a person who died for end stage AD. The brain sample was collected 5 h post-mortem and characterized for Braak disease stage (Braak and Braak, 1991) as stage VI. The method used for the PHF enrichment was modified from published procedures (Jicha et al., 1997; Rostagno and Ghiso, 2009). Around 16 g of the AD human brain was thawed on ice and homogenized with 50 ml of homogenization buffer [0.75 M NaCl in RAB buffer (100 mM 2-(N-morpholino) ethanesulfonic acid (MES), 1 mM EGTA, 0.5 mM MgSO4, 2 mM DTT, pH 6.8) supplemented with protease inhibitors (Complete; Roche 11697498001)] in a glass Dounce homogenizer. The homogenate was then incubated at 4° C. for 20 min to let depolymerize any residual microtubules, before being transferred into polycarbonate centrifuge bottles (16×76 mm; Beckman 355603). For both purifications, brain homogenates were then centrifuged at 11,000 g (12,700 RPM) in an ultracentrifuge (Beckman, XL100K) for 20 min at 4° C. using the pre-cooled 70.1 rotor (Beckman, 342184). Pellets were kept on ice. Supernatants were pooled into polycarbonate bottles and centrifuged again at 100,000 g (38,000 RPM) for 1 h at 4° C. in the 70.1 Ti rotor to isolate PHF-rich pellets, whereas soluble Tau remained in the supernatants. The pellets from the first and second centrifugations were resuspended in 120 mL of extraction buffer [10 mM Tris-HCl pH 7.4, 10% sucrose, 0.85 M NaCl, 1% protease inhibitor (Calbiochem 539131), 1 mM EGTA, 1% phosphatase inhibitor (Sigma P5726 and P0044)]. The solution was then transferred into polycarbonate centrifuge bottles (16×76 mm; Beckman 355603) and centrifuged at 15,000 g (14,800 RPM) in an ultracentrifuge (Beckman, XL100K) for 20 min at 4° C. using the 70.1 Ti rotor. […]

Sequence of Tau enriched paired helical filaments (PHF) from human Alzheimer's disease (AD) brains (P10636 623-708 limits assumed): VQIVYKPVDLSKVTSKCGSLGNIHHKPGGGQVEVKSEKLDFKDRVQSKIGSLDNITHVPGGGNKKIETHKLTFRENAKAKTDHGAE

Compound	Kd [nM]
Cn1c2ccncc2c2ccc(Nc3cccc(OCCF)c3)nc21 [Example 8]	19 ± 3
Cn1c2ccncc2c2ccc(Nc3ccc(F)c(F)c3)nc21 [Example 2]	33 ± 5
